Read-outs that look alike come from different tables or passages of the source.
Test system: Pyricularia oryzae
Type: in vivo
Conditions: individual active compound, protective spray, inoculated next day, rated after 6 days

SMILES | Efficacy in % of the untreated control (1 ppm in the spray liquor) [%] | Efficacy in % of the untreated control (4 ppm in the spray liquor) [%]
CC(Nc1c(-c2c(F)cc(F)cc2F)c(Cl)nc2ncnn12)C(F)(F)F (centres unmarked) [B] | 11 | 33
CC1CCN(c2c(-c3c(F)cccc3Cl)c(Cl)nc3ncnn23)CC1 [A] | 0 | 11
CC1CCN(c2c(-c3c(F)cc(F)cc3F)c(Cl)nc3ncnn23)CC1 [I, 5-chloro-7-(4-methylpiperidin-1-yl)-6-(2,4,6-trifluorophenyl)-[1,2,4]triazolo[1,5-a]pyrimidine] | 11 | 33
CCCC1COC(Cn2cncn2)(c2ccc(Cl)cc2Cl)O1 (centres unmarked) [II, 1-[2-(2,4-dichlorophenyl)-4-propyl-[1,3]dioxolan-2-ylmethyl]-1H-[1,2,4]triazole] | 0 | 0

Source: patent US20070082915A1 (priority 2003, published 2007)
